The results in this text go back to patent US7897741B2, “Cell cycle phase markers” (GE Healthcare UK Limited, priority 2004, dated 2011).

Molecules are shown by their SMILES.

What all share (assay type): cell-based, human
The test system of test [1] is U2OS stable cells expressing the pCORON1002-EGFP-C1-PSLD construct. The experiment in a line: Chemical cell cycle block studies on EGFP-PSLD stable cell line (IN Cell Analyzer imaging). Conditions: for % G1: % of cells per field of view in G1-phase; for % G2: % of cells per field of view in G2-phase; for % S: % of cells per field of view in S-phase; for Total cells: total number of cells per field of view. The procedure: Stable cells expressing the pCORON1002-EGFP-C1-PSLD construct, were seeded at 0.3×10^5/ml in 96-well Greiner plates using antibiotic-free medium (100 μl/well) and incubate for 16 hours.
For chemical block studies (Table 1), stable cells were exposed to olomoucine, roscovitine, nocodazole, mimosine, colcemid or colchicine (Sigma). Cells were fixed in 2% formalin and nuclei stained with hoechst (2 μM).
After high throughput imaging and analysis on the IN Cell Analyzer system (GEHC), data for average nuclear intensity and N:C ratio (EGFP signal), nuclear size (hoescht signal) and, where appropriate, nuclear signal intensity (BrdU) were obtained for the total number of individual cells in a field of view using hoescht as a nuclear mask and the IN Cell Analyzer 3000 cell cycle phase marker algorithm (GEHC). For each well, the total number of cells per field of view were catagorised into G1-phase (predominantly nuclear EGFP distribution; high EGFP-PSLD nuclear intensity and N:C ratio), S-phase (nuclear BrdU signal >3SDs above background; EGFP-PSLD N:C ratio around 1) and G2-phase (large nuclear size; low EGFP-PSLD N:C ratio).

Test [2] relates to EGFP-PSLD stable cell lines (U2OS). As to the kind of experiment: Kinetic imaging (24 hours) of EGFP-PSLD stable cell lines treated with olomoucine. Conditions: cells arrested in G2, without passing through mitosis; kinetic imaging over 24 hours. The procedure: Where appropriate, for high throughput imaging, kinetic imaging (24 hr) and analysis in multiwell plate format of stable cell lines flourescence microscopy was conducted using a high throughput confocal imaging system (IN Cell Analyzer 1000 or IN Cell Analyzer 3000, GE Healthcare, Amersham, UK) on cells transfected with pCORON1002-EGFP-C1-PSLD, pCORON1002-EGFP-C1-βGal-PSLD or redFP derivatives of these vectors. Images were analysed using the cell cycle phase marker algorithm (GE Health Care).

Test [3] concerns CRM1-mediated nuclear export. As to the kind of experiment: Block of nuclear protein export: localization of GFP-HDHB and FLAG-HDHB in U2OS cells with LMB. Conditions: in the presence of LMB (10 ng/ml, 3 h, with 10 μM cycloheximide); asynchronous, G1 and S phase U2OS cells. The procedure:
Cell cycle synchronization was verified by flow cytometry as described previously (Taneja et al., J. Biol. Chem., (2002) 277, 40853-40861). In experiments to block nuclear protein export, cells were cultured for 3 h in DMEM containing 10 ng/ml of leptomycin B (LMB) and 10 μM cycloheximide (Calbiochem, San Diego, Calif.) to prevent new protein synthesis. Cells plated on glass coverslips were microinjected as described (Herbig et al., 1999) except that plasmid DNA rather than protein was injected.
For indirect immunofluorescence staining, cells were washed three times with phosphate buffered saline (PBS), fixed with 3.7% formaldehyde in PBS for 20 min, permeabilized for 5 min in 0.2% Triton X-100, and incubated with 10% FBS in PBS for 45 min. FLAG-HDHB was detected with mouse monoclonal anti-FLAG antibody (Sigma-Aldrich), 1:100 in PBS plus 10% FBS for 2 h at room temperature. After washing, cells were incubated with Texas Red-conjugated goat anti-mouse secondary antibody (Jackson ImmunoResearch Laboratories, West Grove, Pa.) at 1:100 in PBS plus 10% FBS for 1 h at room temperature. […] The subcellular distribution of each protein was quantitatively evaluated in at least two independent experiments.
For GFP fluorescence, cells were washed three times with phosphate-buffered saline (PBS), fixed with 3.7% formaldehyde containing 2 μM Hoechst 33258 for 20 min and imaged and evaluated as above.

On to `N[C@@H](Cn1ccc(=O)c(O)c1)C(=O)O` [L-mimosine], for which, in test [1] (2 mM), the “% G1” value is 6%, the “% G2” value is given as 26%, the “% S” value was determined as 68% and the Total cells was determined as 1710.

In the case of `CN[C@H]1CCc2cc(OC)c(OC)c(OC)c2-c2ccc(OC)c(=O)cc21` [Colcemid], in test [1] (0.3 μM), the “% G1” value was determined as 16%, the “% G2” value was found to be 43%, the “% S” value is 41% and the Total cells is 490. Further, in test [1] (1.2 μM), the “% G1” value worked out at 8%, the “% G2” value was found to be 59%, the “% S” value is recorded as 32% and the Total cells was found to be 450.

As for `CC[C@H](CO)Nc1nc(NCc2ccccc2)c2ncn(C(C)C)c2n1` [Roscovitin], in test [1] (100 μM), the “% G1” value was found to be 52%, the “% G2” value amounted to 13%, the “% S” value was found to be 36% and the Total cells worked out at 693. In addition, the “EGFP-PSLD distribution and cell cycle arrest” value in test [1] (EGFP-PSLD stable cell lines, refers to Table 1) was “predominantly nuclear distribution of EGFP-PSLD and arrest in G1”.

`COc1cc2c(c(OC)c1OC)-c1ccc(OC)c(=O)cc1[C@@H](NC(C)=O)CC2` [Colchicine]: in test [1] (4 μM), the “% G1” value was determined as 9%, the “% G2” value was found to be 55%, the “% S” value worked out at 36% and the Total cells was 467. In test [1] (100 μM), the “% G1” value is listed as 12%, the “% G2” value worked out at 57%, the “% S” value is given as 32% and the Total cells turned out to be 439.

For the compound `Cn1cnc2c(NCc3ccccc3)nc(NCCO)nc21` [Olomoucine], in test [1] (500 μM), the “% G1” value is 63%, the “% G2” value turned out to be 4%, the “% S” value came to 33% and the Total cells turned out to be 600. The “Time for EGFP-PSLD signal to redistribute from the cytoplasm to the nucleus” value in test [2] fell in the range of 4 to 8 h.

As to `COC(=O)Nc1nc2ccc(C(=O)c3cccs3)cc2[nH]1` [Nocodazole], in test [1] (3 μM), the “% G1” value was found to be 6%, the “% G2” value is 61%, the “% S” value was determined as 33% and the Total cells is given as 606.

Take `CCC(=C/[C@H](C)C/C=C/C(C)=C/[C@@H](C)C(=O)[C@@H](C)[C@H](O)[C@@H](C)C/C(C)=C/C(=O)O)/C=C/[C@@H]1OC(=O)C=C[C@@H]1C` [LMB, Leptomycin B]: in test [3], the “Localization of GFP-HDHB and FLAG-HDHB fusion proteins” value is “accumulated in the nucleus independently of the cell cycle”.
